Here are results for one molecule from patent US20260165953A1, “THE HIPPO PATHWAY AS A PHARMACOLOGIC TARGET FOR TREATING REFRACTIVE DISORDERS” (Centre for Eye and Vision Research Limited, priority 2022, published 2026).

Series [1] can be described thus: Signs of toxicity in animal models. It is filed as in vivo.
Series [2] concerns form-deprivation myopia (FDM) in chicks. As to the kind of experiment: Unilateral form-deprivation myopia (FDM) in chicks, four intravitreal injections every alternate day, 7-day diffuser lens treatment. It is filed as in vivo, White Leghorn chicks (Gallus gallus). The settings on record: for axial length, mean interocular difference ± SD / refractive error (myopic progression), mean interocular difference ± SD / increase in choroidal thickness compared to the vehicle group / choroidal thickness, mean interocular difference ± SD: after 7-day treatment; for axial length, mean interocular difference ± SD: vehicle 0.75±0.19 mm; for refractive error (myopic progression), mean interocular difference ± SD: vehicle −10.0±2.56 D; for choroidal thickness, mean interocular difference ± SD: vehicle 43.02±8.87 μm. Here is the method:
XMU-MP-1, known for its reversible and selective inhibition of MST1/2 (upstream to YAP/TAZ), leading to a significant increase in the activity of the Hippo pathway effector YAP, undergoes testing in a dose-dependent manner for its impact on form-deprivation myopia (FDM) in chicks.
White Leghorn chicks (Gallus gallus) from specific pathogen-free eggs (SPF, Jinan, China) are raised in standard cages with adequate food and water, maintaining a temperature of 25° C. and a 12 h:12 h light/dark cycle. The experimental period spans from postnatal 7 days (PN 7) to 14 days (PN 14). A unilateral FDM model is established using a published protocol, involving four intravitreal injections performed every alternate day. Following the first injection, diffuser lenses are attached to the right eye, with lenses covering only the XMU-MP-1 injected eye (unilateral FDM). XMU-MP- 1, dissolved in 10% DMSO with 90% Corn oil, is injected monocularly using a 0.3 mm (30 G)×8 mm needle into the vitreous through the skin, sclera, choroid, and retina close to the margin of the upper orbit. Contralateral eyes receive no lens treatment. Four concentrations of XMU-MP-1 (0.02, 0.2, 2, and 20 mmol/L) are selected for evaluation.
Animals are randomly assigned to five groups, encompassing the FDM with vehicle treatment group (vehicle group, 10% DMSO+90% Corn oil, n=14), FDM with 0.02 mmol/L XMU-MP-1 treatment group (XMU-MP-1, 0.02 mmol/L group, n=5), FDM with 0.2 mmol/L XMU-MP-1 treatment group (XMU-MP-1, 0.2 mmol/L group, n=5), FDM with 2 mmol/L XMU-MP-1 treatment group (XMU-MP-1, 2 mmol/L group, n=13), and FDM with 20 mmol/L XMU-MP-1 treatment group (XMU-MP-1, 20 mmol/L group, n=14).
Refractive errors are assessed using a streak retinoscope, and ocular parameters are measured with a high-frequency A-scan ultrasound system equipped with a 30 MHz transducer (Panametrics, Inc., Waltham, MA) before and after treatment. The spherical equivalent (S.E.) is derived from the refractive status (S.E.=spherical power+½ cylindrical power), and axial length is defined from the front of the cornea to the back of the vitreous chamber.
For statistical analysis, after the 7-day lens treatment period, interocular differences (the difference between the diffuser-treated eyes and the contralateral fellow eyes) are calculated for six ocular parameters (refractive error, anterior chamber depth, lens thickness, vitreous chamber depth (FIG. 4B), axial length, and choroidal thickness). Mean interocular differences±SD are presented, and the significance of the dose-effect is analyzed using ANOVA. Post hoc testing (Dunnett's method) is employed where appropriate, with significance levels denoted as follows: ns, not significant; *, P<0.05; **, P<0.01; ****, P<0.0001.

Setting [3] is: 2 mmol/L XMU-MP-1 intravitreal, n=13, P<0.001.
The mark [4] stands for this setting: 20 mmol/L XMU-MP-1 intravitreal, n=14, P<0.0001.

Molecules are shown by their SMILES.

`CN1C(=O)c2sccc2N(C)c2nc(Nc3ccc(S(N)(=O)=O)cc3)ncc21` [XMU-MP-1]: the signs of toxicity result in series [1] is “no discernible signs of toxicity”. The “axial length, mean interocular difference ± SD” value in series [2] (0.02 mmol/L XMU-MP-1 intravitreal, n=5) is listed as 0.73±0.13 mm; in series [2] (0.2 mmol/L XMU-MP-1 intravitreal, n=5, P<0.001) it was 0.41±0.24 mm; in series [2] (setting [3]) it was 0.36±0.20 mm; in series [2] (setting [4]), 0.27±0.22 mm. For the same molecule, the “refractive error (myopic progression), mean interocular difference ± SD” value in series [2] (0.2 mmol/L XMU-MP-1 intravitreal, n=5, P<0.01) is −6.05±2.97 D; in series [2] (2 mmol/L XMU-MP-1 intravitreal, n=13, P<0.0001), −4.69±2.75 D; in series [2] (setting [4]) it was −3.51±2.89 D. In addition, the “inhibition of myopia, based on refractive error and axial length data” value is reported as “about 40%” in series [2] (0.2 mmol/L group) and “about 53%” in series [2] (2 mmol/L group). For the same molecule, the “increase in choroidal thickness compared to the vehicle group” value is listed as “about 50%” in series [2] (2 mmol/L XMU-MP-1 intravitreal) and roughly 70% in series [2] (20 mmol/L XMU-MP-1 intravitreal). Besides, the “choroidal thickness, mean interocular difference ± SD” value is 22.07±15.13 μm in series [2] (setting [3]) and 12.83±17.96 μm in series [2] (setting [4]). Moreover, the “suppression of myopia development” value in series [2] (highest dose tested (200 nmol)) is recorded as “about 65%”. The “inhibition of lens-induced myopia” value in series [2] (intravitreal injection) is on record as “robustly inhibits lens-induced myopia”. Besides, the “suppression of myopia progression, dose dependence” value in series [2] (intravitreal injection, 0.02-20 mmol/L, ANOVA significant dose-response effect (p<0.0001)) was “can suppress myopia progression through intravitreal injection in a dose-dependent manner”.
